Measured values as given in article PMC3664191 (Bioorganic & medicinal chemistry letters, 2013).

How the values were obtained:
Clk4 = Clk4 (Homo sapiens, UniProt Q9HAZ1); experiment: Kinase Glo; format: biochemical; conditions: matrix library, Kinase Glo (Promega) assay, Figure 4
Clk3 = Clk3 (Homo sapiens, UniProt P49761); conditions: cited from earlier work
[1] = phosphate buffered saline (PBS) and assay media
adrenergic α2A = target: T1, adrenergic α2A (Homo sapiens, UniProt P08913); experiment: Ricerca LeadProfiling off-target screen; conditions: read-out: inhibition or stimulation, adrenergic α2A
T1 sequence (P08913 1-465): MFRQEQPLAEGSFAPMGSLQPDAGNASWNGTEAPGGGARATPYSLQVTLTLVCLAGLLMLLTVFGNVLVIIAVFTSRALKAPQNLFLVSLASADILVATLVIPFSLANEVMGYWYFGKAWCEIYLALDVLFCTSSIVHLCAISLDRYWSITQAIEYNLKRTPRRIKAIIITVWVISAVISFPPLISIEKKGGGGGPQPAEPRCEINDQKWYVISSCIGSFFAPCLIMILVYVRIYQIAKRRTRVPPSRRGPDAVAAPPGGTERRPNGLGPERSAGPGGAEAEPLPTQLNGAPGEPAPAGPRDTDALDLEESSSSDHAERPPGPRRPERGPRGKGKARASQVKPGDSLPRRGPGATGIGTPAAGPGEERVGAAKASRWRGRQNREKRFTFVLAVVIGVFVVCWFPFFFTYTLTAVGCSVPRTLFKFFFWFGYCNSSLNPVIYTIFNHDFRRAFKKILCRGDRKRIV

[2] = target: norepinephrine transporter (NET) (Homo sapiens, UniProt P23975); experiment: Ricerca LeadProfiling off-target screen; format: binding; conditions: read-out: inhibition or stimulation, norepinephrine transporter (NET)
Sequence of norepinephrine transporter (NET) (P23975 whole entry): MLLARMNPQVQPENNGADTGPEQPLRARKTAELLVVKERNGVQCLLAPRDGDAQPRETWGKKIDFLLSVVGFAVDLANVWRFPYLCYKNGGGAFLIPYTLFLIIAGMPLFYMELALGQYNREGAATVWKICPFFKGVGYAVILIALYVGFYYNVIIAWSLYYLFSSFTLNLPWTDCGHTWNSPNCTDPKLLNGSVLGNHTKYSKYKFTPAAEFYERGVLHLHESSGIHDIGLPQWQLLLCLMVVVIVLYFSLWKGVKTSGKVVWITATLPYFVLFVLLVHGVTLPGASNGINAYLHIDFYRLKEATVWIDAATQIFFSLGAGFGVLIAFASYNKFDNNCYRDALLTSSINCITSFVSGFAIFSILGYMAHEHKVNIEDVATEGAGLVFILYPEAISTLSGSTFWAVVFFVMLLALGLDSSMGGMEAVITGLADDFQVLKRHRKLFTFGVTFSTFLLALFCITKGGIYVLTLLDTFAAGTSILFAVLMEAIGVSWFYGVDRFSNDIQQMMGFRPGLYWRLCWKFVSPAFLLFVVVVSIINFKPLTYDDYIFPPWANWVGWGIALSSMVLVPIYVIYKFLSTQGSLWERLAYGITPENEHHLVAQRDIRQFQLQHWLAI

[3] = target: dopamine transporter (DAT) (Homo sapiens, UniProt Q01959); experiment: Ricerca LeadProfiling off-target screen; format: binding; conditions: read-out: inhibition or stimulation, dopamine transporter (DAT)
Sequence of dopamine transporter (DAT) (Q01959 whole entry): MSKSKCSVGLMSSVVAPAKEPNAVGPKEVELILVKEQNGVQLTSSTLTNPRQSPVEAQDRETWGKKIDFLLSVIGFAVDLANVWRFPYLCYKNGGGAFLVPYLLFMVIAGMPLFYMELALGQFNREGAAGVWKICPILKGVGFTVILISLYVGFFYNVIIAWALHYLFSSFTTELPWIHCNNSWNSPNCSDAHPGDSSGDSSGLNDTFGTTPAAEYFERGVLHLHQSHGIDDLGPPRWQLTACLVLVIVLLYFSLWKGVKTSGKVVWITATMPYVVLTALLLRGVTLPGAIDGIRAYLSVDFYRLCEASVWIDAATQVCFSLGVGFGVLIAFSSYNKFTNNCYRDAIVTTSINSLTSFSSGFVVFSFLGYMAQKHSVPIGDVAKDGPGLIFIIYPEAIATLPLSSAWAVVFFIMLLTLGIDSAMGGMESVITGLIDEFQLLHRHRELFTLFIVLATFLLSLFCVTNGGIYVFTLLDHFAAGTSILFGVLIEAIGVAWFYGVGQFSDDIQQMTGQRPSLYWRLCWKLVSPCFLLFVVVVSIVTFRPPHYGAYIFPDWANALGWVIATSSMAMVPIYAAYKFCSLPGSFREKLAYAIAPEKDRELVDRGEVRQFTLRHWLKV

DRAK = experiment: DiscoverRX KINOMEscan binding; conditions: 10 μM
CSNK1E = CSNK1E (Homo sapiens, UniProt P49674); experiment: DiscoverRX KINOMEscan binding; conditions: read-out: % control CSNK1E
Sequence of CSNK1E (P49674 whole entry): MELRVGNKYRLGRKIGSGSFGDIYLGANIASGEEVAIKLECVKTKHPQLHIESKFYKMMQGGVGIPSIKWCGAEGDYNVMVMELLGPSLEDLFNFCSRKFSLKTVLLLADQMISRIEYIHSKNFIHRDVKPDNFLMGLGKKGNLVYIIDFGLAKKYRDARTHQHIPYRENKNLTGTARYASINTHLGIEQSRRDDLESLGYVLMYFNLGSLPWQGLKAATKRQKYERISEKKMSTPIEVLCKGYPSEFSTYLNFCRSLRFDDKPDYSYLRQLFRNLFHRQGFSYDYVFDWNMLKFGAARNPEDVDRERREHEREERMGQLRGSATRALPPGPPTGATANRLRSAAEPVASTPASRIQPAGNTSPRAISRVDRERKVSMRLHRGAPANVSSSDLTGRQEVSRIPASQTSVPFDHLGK

Sequence of Clk4 (Q9HAZ1 whole entry, species assumed): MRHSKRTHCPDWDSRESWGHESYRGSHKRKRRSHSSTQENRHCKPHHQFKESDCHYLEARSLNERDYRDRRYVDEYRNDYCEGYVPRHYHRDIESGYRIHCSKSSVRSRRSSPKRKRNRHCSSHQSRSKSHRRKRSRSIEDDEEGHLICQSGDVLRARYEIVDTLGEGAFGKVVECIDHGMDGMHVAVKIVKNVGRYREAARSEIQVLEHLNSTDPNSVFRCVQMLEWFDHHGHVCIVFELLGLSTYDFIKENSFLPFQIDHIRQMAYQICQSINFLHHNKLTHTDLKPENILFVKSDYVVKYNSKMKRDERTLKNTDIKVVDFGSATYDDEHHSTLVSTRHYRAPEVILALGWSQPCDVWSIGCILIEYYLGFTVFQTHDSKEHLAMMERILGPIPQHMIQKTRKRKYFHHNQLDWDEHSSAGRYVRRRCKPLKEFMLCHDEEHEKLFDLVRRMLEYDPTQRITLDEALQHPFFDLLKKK
Sequence of Clk3 (P49761 whole entry): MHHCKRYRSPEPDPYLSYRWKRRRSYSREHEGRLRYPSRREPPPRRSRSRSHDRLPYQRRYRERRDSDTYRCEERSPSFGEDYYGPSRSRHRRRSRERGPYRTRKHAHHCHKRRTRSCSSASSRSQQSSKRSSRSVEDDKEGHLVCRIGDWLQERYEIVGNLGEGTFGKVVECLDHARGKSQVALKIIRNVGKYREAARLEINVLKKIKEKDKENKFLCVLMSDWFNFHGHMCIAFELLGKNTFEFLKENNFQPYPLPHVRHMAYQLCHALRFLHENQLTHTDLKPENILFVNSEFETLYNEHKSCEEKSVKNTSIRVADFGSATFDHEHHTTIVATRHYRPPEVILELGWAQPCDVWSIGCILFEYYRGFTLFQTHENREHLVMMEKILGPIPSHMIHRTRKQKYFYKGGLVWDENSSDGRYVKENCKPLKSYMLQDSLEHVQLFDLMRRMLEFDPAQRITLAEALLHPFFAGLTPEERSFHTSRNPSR

Structure (SMILES): COc1cccc(-c2nccc(NCc3ccc(Cl)c(Cl)c3)n2)c1 [Compound C2]
- activity against Clk4 (Clk4): active

Structure (SMILES): Clc1ccc(CNc2ccnc(-c3ccc4c(c3)OCO4)n2)cc1Cl [Compound A2]
- activity against Clk4 (Clk4): active

Structure (SMILES): O=C1NC(Nc2ccccc2)=N/C1=C\c1ccc2c(c1)OCO2 [Leucettine L41]
- IC50 (Clk3; read-out: Clk3 IC50): 4.5 µM

Structure (SMILES): COc1ccc(-c2nccc(NCc3ccc(Cl)cc3)n2)cc1 [Compound G4]
- activity against Clk4 (Clk4): active

Structure (SMILES): Clc1cc(Cl)cc(CNc2ncncc2-c2ccc3c(c2)OCO3)c1 [Compound 35]
- plasma stability (Plasma stability, human): stable
- solubility [1]: limited
- cell permeability (Cell permeability): moderately cell permeable
- inhibition at 10 µM (adrenergic α2A): > 50%
- plasma stability (Plasma stability, mouse): stable
- inhibition at 10 µM [2]: > 50%
- inhibition at 10 µM [3]: > 50%

Structure (SMILES): COc1ccc(-c2nccc(NCc3ccc(Cl)c(Cl)c3)n2)cc1 [Compound G2]
- activity against Clk4 (Clk4): active

Structure (SMILES): Clc1ccc(CNc2ccnc(-c3ccc4c(c3)OCO4)n2)cc1 [Compound A4]
- activity against Clk4 (Clk4): active

Structure (SMILES): CCN1/C(=C/C(C)=O)Sc2ccc(OC)cc21 [TG003]
- Clk3 activity (Clk3): inactive

Structure (SMILES): Clc1ccc(CNc2nccc(-c3ccc4[nH]ncc4c3)n2)cc1Cl [Compound 22]
- % control DRAK (DRAK): < 10 % control
- remaining binding at 10 µM (CSNK1E): < 10%
